According to PubChem BioAssay AID180 (DTP/NCI, 2004):
Values joined by “and” are separate entries in the source; they are usually repeats but may differ in a detail not shown here. Equal values may be shown once. Starred links: 1 amine or outer side, 2 acyl side, 3 side chain; linkers in the order of their positions; H or OH if unused. Positions of bridges follow the written chain, without caps; N, C: chain ends. Non-standard residues stand in square brackets, D forms with d. Residues, ends and D or L forms follow the SMILES beside them. Chains are numbered I, II in the order given. Actinocin(9to1) = Cc1c2oc3c(C)ccc(C(=O)[*:1])c3nc-2c(C(=O)[*:2])c(N)c1=O; aThr = C[C@H](O)[C@H](N)C(=O)O; NMeV = CN[C@H](C(=O)O)C(C)C; Sar = CNCC(=O)O

Tested on: BDF1 mice, Adenocarcinoma 755 s.c., tumor weight T/C
Test: NCI In Vivo Anticancer Drug Screen. Data for tumor model Adenocarcinoma 755 (subcutaneous) in B6D2F1 (BDF1) mice
Details: endpoint: mean tumor weight, higher = larger tumour
How it was run: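 Values express treated (T) relative to vehicle-dosed control (C) animals, based on survival or tumour size measured after compound treatment of mice bearing a transplanted tumour.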

[1] = dose: 25.0 mg/kg/injection, schedule: Q01DX011 (ip), vehicle: carboxymethylcellulose (CMC)
[2] = dose: 50.0 mg/kg/injection, schedule: Q01DX011 (ip), vehicle: carboxymethylcellulose (CMC)
[3] = dose: 25.0 mg/kg/injection, schedule: Q01DX011 (ip), vehicle: methylcellulose (MC)
[4] = dose: 6.0 mg/kg/injection, schedule: Q01DX011 (ip), vehicle: carboxymethylcellulose (CMC)
[5] = dose: 12.0 mg/kg/injection, schedule: Q01DX011 (ip), vehicle: carboxymethylcellulose (CMC)
[6] = dose: 24.0 mg/kg/injection, schedule: Q01DX011 (ip), vehicle: carboxymethylcellulose (CMC)

SMILES: Cc1c2oc3c(C)ccc(C(=O)N[C@@H]4C(=O)N[C@H](C(C)C)C(=O)N5CCC[C@H]5C(=O)N(C)CC(=O)N(C)[C@@H](C(C)C)C(=O)O[C@H]4C)c3nc-2c(C(=O)N[C@@H]2C(=O)N[C@H](C(C)C)C(=O)N3CCC[C@H]3C(=O)N(C)CC(=O)N(C)[C@@H](C(C)C)C(=O)O[C@H]2C)c(N)c1=O (I: [aThr][dV]P[Sar][NMeV] / II: [aThr][dV]P[Sar][NMeV]; ester I:1-I:C, II:1-II:C; linker I:N-II:N via Actinocin(9to1))
- T/C (dose: 0.02 mg/kg/injection, schedule: Q01DX011 (ip), vehicle: saline): 2 % of control
- T/C (dose: 0.03 mg/kg/injection, schedule: Q01DX011 (ip), vehicle: carboxymethylcellulose (CMC)): 9 % of control
- T/C (dose: 0.04 mg/kg/injection, schedule: Q01DX011 (ip), vehicle: carboxymethylcellulose (CMC)): 105 % of control
- T/C (dose: 0.08 mg/kg/injection, schedule: Q01DX011 (ip), vehicle: carboxymethylcellulose (CMC)): 39 % of control
- T/C (dose: 12.0 micrograms/kg/injection, schedule: Q01DX011 (ip), vehicle: carboxymethylcellulose (CMC)): 101 % of control
- T/C (dose: 15.0 micrograms/kg/injection, schedule: Q01DX011 (ip), vehicle: carboxymethylcellulose (CMC)): 82 % of control
- T/C (dose: 24.0 micrograms/kg/injection, schedule: Q01DX011 (ip), vehicle: carboxymethylcellulose (CMC)): 26 % of control and 43 % of control
- T/C (dose: 40.0 micrograms/kg/injection, schedule: Q01DX011 (ip), vehicle: carboxymethylcellulose (CMC)): 4 % of control and 13 % of control
- T/C (dose: 48.0 micrograms/kg/injection, schedule: Q01DX011 (ip), vehicle: carboxymethylcellulose (CMC)): 10 % of control and 11 % of control
- T/C (dose: 53.0 micrograms/kg/injection, schedule: Q01DX011 (ip), vehicle: carboxymethylcellulose (CMC)): 3 % of control and 4 % of control
- T/C (dose: 95.0 micrograms/kg/injection, schedule: Q01DX011 (ip), vehicle: carboxymethylcellulose (CMC)): 2 % of control

SMILES: CN1c2ccc3ccccc3c2Sc2ccc3ccccc3c21
- T/C (dose: 8.25 mg/kg/injection, schedule: Q01DX011 (ip), vehicle: carboxymethylcellulose (CMC)): 53 % of control
- T/C (dose: 16.5 mg/kg/injection, schedule: Q01DX011 (ip), vehicle: carboxymethylcellulose (CMC)): 71 % of control
- T/C [1]: 59 % of control
- T/C (dose: 29.0 mg/kg/injection, schedule: Q01DX011 (ip), vehicle: carboxymethylcellulose (CMC)): 66 % of control
- T/C (dose: 33.0 mg/kg/injection, schedule: Q01DX011 (ip), vehicle: carboxymethylcellulose (CMC)): 46 % of control
- T/C (dose: 44.0 mg/kg/injection, schedule: Q01DX011 (ip), vehicle: carboxymethylcellulose (CMC)): 80 % of control
- T/C [2]: 69 % of control
- T/C (dose: 66.0 mg/kg/injection, schedule: Q01DX011 (ip), vehicle: carboxymethylcellulose (CMC)): 29 % of control and 39 % of control and 40 % of control
- T/C (dose: 150.0 mg/kg/injection, schedule: Q01DX011 (ip), vehicle: carboxymethylcellulose (CMC)): 27 % of control
- T/C (dose: 200.0 mg/kg/injection, schedule: Q01DX011 (ip), vehicle: carboxymethylcellulose (CMC)): 48 % of control
- T/C (dose: 387.5 mg/kg/injection, schedule: Q01DX011 (ip), vehicle: carboxymethylcellulose (CMC)): 55 % of control

SMILES: CCOC(=O)CCCc1ccc(N=NN(C)C(C)CC)cc1 (stereo not given)
- T/C (dose: 62.0 mg/kg/injection, schedule: Q01DX011 (ip), vehicle: carboxymethylcellulose (CMC)): 64 % of control
- T/C (dose: 125.0 mg/kg/injection, schedule: Q01DX011 (ip), vehicle: carboxymethylcellulose (CMC)): 71 % of control
- T/C (dose: 250.0 mg/kg/injection, schedule: Q01DX011 (ip), vehicle: carboxymethylcellulose (CMC)): 14 % of control

SMILES: CC(=O)N1CCCCC1
- T/C (dose: 12.5 mg/kg/injection, schedule: Q01DX011 (ip), vehicle: other): 92 % of control
- T/C (dose: 25.0 mg/kg/injection, schedule: Q01DX011 (ip), vehicle: other): 69 % of control
- T/C (dose: 50.0 mg/kg/injection, schedule: Q01DX011 (ip), vehicle: other): 73 % of control
- T/C (dose: 100.0 mg/kg/injection, schedule: Q01DX011 (ip), vehicle: other): 85 % of control

SMILES: CCN(CC)c1nc(SCc2ccc(Cl)cc2Cl)ncc1C
- T/C (dose: 15.0 mg/kg/injection, schedule: Q01DX011 (ip), vehicle: methylcellulose (MC)): 56 % of control
- T/C (dose: 31.0 mg/kg/injection, schedule: Q01DX011 (ip), vehicle: methylcellulose (MC)): 89 % of control
- T/C (dose: 62.0 mg/kg/injection, schedule: Q01DX011 (ip), vehicle: methylcellulose (MC)): 71 % of control
- T/C (dose: 125.0 mg/kg/injection, schedule: Q01DX011 (ip), vehicle: methylcellulose (MC)): 61 % of control
- T/C (dose: 250.0 mg/kg/injection, schedule: Q01DX011 (ip), vehicle: methylcellulose (MC)): 54 % of control

SMILES: CC1CCN(/N=N/c2nc3c([nH]2)c(=O)n(C)c(=O)n3C)CC1
- T/C [3]: 41 % of control
- T/C (dose: 75.0 mg/kg/injection, schedule: Q01DX011 (ip), vehicle: methylcellulose (MC)): 57 % of control

SMILES: CSc1nc(C)c(Br)c(Sc2nc(N)nc3nc[nH]c23)n1
- T/C (dose: 0.3 mg/kg/injection, schedule: Q01DX011 (ip), vehicle: carboxymethylcellulose (CMC)): 106 % of control
- T/C (dose: 0.7 mg/kg/injection, schedule: Q01DX011 (ip), vehicle: carboxymethylcellulose (CMC)): 117 % of control
- T/C [4]: 42 % of control
- T/C [5]: 28 % of control
- T/C [6]: 6 % of control

SMILES: Cn1cnc2c(F)ncnc21
- T/C (dose: 8.5 mg/kg/injection, schedule: Q01DX011 (ip), vehicle: carboxymethylcellulose (CMC)): 106 % of control
- T/C (dose: 17.0 mg/kg/injection, schedule: Q01DX011 (ip), vehicle: carboxymethylcellulose (CMC)): 96 % of control
- T/C (dose: 34.0 mg/kg/injection, schedule: Q01DX011 (ip), vehicle: carboxymethylcellulose (CMC)): 85 % of control
- T/C (dose: 68.0 mg/kg/injection, schedule: Q01DX011 (ip), vehicle: carboxymethylcellulose (CMC)): 84 % of control

SMILES: CC(=O)[C@H]1CC[C@H]2[C@@H]3C[C@H](F)C4=CC(=O)CC[C@]4(C)[C@H]3C(=O)C[C@]12C
- T/C (dose: 3.5 mg/kg/injection, schedule: Q01DX011 (sc), vehicle: steriod suspending solution): 82 % of control
- T/C (dose: 7.0 mg/kg/injection, schedule: Q01DX011 (sc), vehicle: steriod suspending solution): 66 % of control
- T/C (dose: 55.0 mg/kg/injection, schedule: Q01DX011 (sc), vehicle: steriod suspending solution): 15 % of control and 20 % of control
- T/C (dose: 110.0 mg/kg/injection, schedule: Q01DX011 (sc), vehicle: steriod suspending solution): 13 % of control and 14 % of control
- T/C (dose: 220.0 mg/kg/injection, schedule: Q01DX011 (sc), vehicle: steriod suspending solution): 3 % of control and 8 % of control

SMILES: O=CC1CO1 (stereo not given)
- T/C (dose: 29.0 mg/kg/injection, schedule: Q01DX011 (ip), vehicle: saline): 71 % of control
- T/C (dose: 44.0 mg/kg/injection, schedule: Q01DX011 (ip), vehicle: saline): 41 % of control
- T/C (dose: 66.0 mg/kg/injection, schedule: Q01DX011 (ip), vehicle: saline): 66 % of control

SMILES: COC(=O)c1nc(-c2ccc3c(n2)C(=O)C(N)=C(OC)C3=O)c(N)c(-c2ccc(OC)c(OC)c2O)c1C
- T/C (dose: 0.31 mg/kg/injection, schedule: Q01DX011 (ip), vehicle: other): 42 % of control
- T/C (dose: 0.63 mg/kg/injection, schedule: Q01DX011 (ip), vehicle: other): 14 % of control
- T/C (dose: 1.25 mg/kg/injection, schedule: Q01DX011 (ip), vehicle: other): 1 % of control
- T/C (dose: 6.0 mg/kg/injection, schedule: Q01DX006 (ip), vehicle: water): 40 % of control
- T/C (dose: 12.5 mg/kg/injection, schedule: Q01DX006 (ip), vehicle: water): 7 % of control

SMILES: CCCn1cnc2c(SCc3ccccc3Cl)nc(N)nc21
- T/C (dose: 0.78 mg/kg/injection, schedule: Q01DX011 (ip), vehicle: methylcellulose (MC)): 85 % of control
- T/C (dose: 1.56 mg/kg/injection, schedule: Q01DX011 (ip), vehicle: methylcellulose (MC)): 72 % of control
- T/C (dose: 3.0 mg/kg/injection, schedule: Q01DX011 (ip), vehicle: carboxymethylcellulose (CMC)): 70 % of control
- T/C (dose: 3.12 mg/kg/injection, schedule: Q01DX011 (ip), vehicle: methylcellulose (MC)): 62 % of control
- T/C [4]: 47 % of control
- T/C (dose: 6.25 mg/kg/injection, schedule: Q01DX011 (ip), vehicle: methylcellulose (MC)): 60 % of control
- T/C [5]: 45 % of control
- T/C (dose: 12.5 mg/kg/injection, schedule: Q01DX011 (ip), vehicle: methylcellulose (MC)): 43 % of control
- T/C [6]: 17 % of control
- T/C [3]: 7 % of control
- T/C (dose: 48.0 mg/kg/injection, schedule: Q01DX011 (ip), vehicle: carboxymethylcellulose (CMC)): 4 % of control
- T/C (dose: 96.0 mg/kg/injection, schedule: Q01DX011 (ip), vehicle: carboxymethylcellulose (CMC)): 2 % of control
- T/C (dose: 190.0 mg/kg/injection, schedule: Q01DX011 (ip), vehicle: carboxymethylcellulose (CMC)): 3 % of control
- T/C (dose: 192.0 mg/kg/injection, schedule: Q01DX011 (ip), vehicle: carboxymethylcellulose (CMC)): 1 % of control
- T/C (dose: 380.0 mg/kg/injection, schedule: Q01DX011 (ip), vehicle: carboxymethylcellulose (CMC)): 4 % of control

SMILES: C=CCn1cnc2c(Cl)ncnc21
- T/C [1]: 10 % of control
- T/C [2]: 6 % of control
